# US9096591B2, “Tetracyclic compounds” (Medivation Technologies, Inc., priority 2007, dated 2015)
# System: AMPA receptors
# Experiment: AMPA-receptor activity: kainic acid-induced currents in Purkinje cells (patch-clamp)
# Format: cell-based, rat
# Conditions: mean±SEM, control=100%
# Experimental: The analysis of effects of the testing compounds on AMPA receptors was carried out using an electrophysiological patch-clamp method in whole cell configuration (Hamill et al., 1980) of the Purkinje cell fresh isolated from the cerebellum of juvenile rats (12-15 days). The isolation was carried out using a modified method (Kaneda et al., 1988) in which cerebral 400-600 μm sections were incubated for 60 min in the temperature controlled chamber in 10 mL of buffer solution (150 mM NaCl, 5 mM KCl, 2 mM CaCl2, 2 mM MgSO4.7H2O, 10 mM HEPES, 15 mM glucose, pH 7.42). The incubation solution was exchanged with the incubation buffer with pronase (2 mg/mL) and collagenase (1 mg/mL) for 70 min. After a 20 min wash with the original buffer, all sections were placed into the Petri dish and were separated using a Pasteur pipette. All solutions were constantly aerated with 100% O2 at 34° C. The composition of extracellular saline was: 150 mM NaCl, 5 mM KCl, 2.6 mM CaCl2, 2 mM MgSO4.7H2O, 10 mM HEPES, 15 mM glucose, pH 7.36. The transmembrane current was induced as a result of the activation of AMPA receptors by a superfusion with the agonist solution (kainic acid). The currents were measured using borosilicate microelectrodes (resistance […]) filled with 100 mM KCl, 11 mM EGTA, 1 mM CaCl2, 1 mM MgCl2, 10 mM HEPES, 5 mM ATP, pH 7.2. The currents were registered using EPC-9 (HEKA, Germany) and recorded with Pulse software package which was also purchased from HEKA. The analysis of observations was carried out using Pulsefit (HEKA, Germany) and the statistical significance was analyzed using a Student's T-test criteria. Data are presented as mean±SEM in % of control values.
# Compounds of the invention were tested in 3-5 neurons. Every concentration of compound was repeated three-four times in every neuron. Data are presented as mean±SEM in % of Control values (Table 13+14, FIGS. 8-12). Control value=100%.
structure (smiles),measurement,setting,value
CN1CCc2c(c3cc(Cl)ccc3n2CCc2nc(-c3ccccc3)cs2)C1 [Compound C1-8],"kainic acid-induced currents in Purkinje cells, % of Control values",compound 3 × 10^−5 M,90 ± 7%
same,"kainic acid-induced currents in Purkinje cells, % of Control values",compound 10^−5 M,105 ± 8%
same,"kainic acid-induced currents in Purkinje cells, % of Control values",compound 10^−6 M,123 ± 8%
same,"kainic acid-induced currents in Purkinje cells, % of Control values",compound 10^−7 M,102 ± 3%
same,"kainic acid-induced currents in Purkinje cells, % of Control values",compound 10^−8 M,100 ± 4%
